As usually defined, the IC50 is the concentration that inhibits the measured activity by half. Usually EC50 stands for the concentration giving half of the maximal effect.

Consider 19 compounds from US9951088B2, “D2 receptor modulators and methods of use thereof in the treatment of diseases and disorders” (SUNOVION PHARMACEUTICALS INC., priority 2012, dated 2018).

In test [1] the target is T1, long isoform of human D2 receptor (Homo sapiens, UniProt P14416). The test can be described thus: cAMP HTRF Agonist Assay (DRD2L PathHunter CHO-K1 cells, forskolin-stimulated). The settings on record: for Emax: CHO-K1, read-out: cAMP (agonist mode) Emax. On the technique in general: TR-FRET usually uses a lanthanide donor and a delayed reading to cut background.
T1 sequence (P14416 whole entry, canonical isoform): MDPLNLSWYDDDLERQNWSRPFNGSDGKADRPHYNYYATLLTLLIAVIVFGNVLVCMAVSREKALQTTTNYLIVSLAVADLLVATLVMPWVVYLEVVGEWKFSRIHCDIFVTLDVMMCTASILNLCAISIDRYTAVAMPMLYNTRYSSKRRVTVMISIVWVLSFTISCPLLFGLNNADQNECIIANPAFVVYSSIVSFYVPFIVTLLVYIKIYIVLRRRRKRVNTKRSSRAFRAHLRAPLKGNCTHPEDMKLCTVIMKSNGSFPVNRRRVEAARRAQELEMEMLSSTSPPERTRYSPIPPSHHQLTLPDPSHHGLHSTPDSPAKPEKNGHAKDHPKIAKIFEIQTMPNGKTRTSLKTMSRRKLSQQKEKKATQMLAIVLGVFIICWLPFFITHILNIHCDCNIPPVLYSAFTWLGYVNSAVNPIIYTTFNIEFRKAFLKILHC
Experimental: Cell Lines: Activities of the compounds were assessed using a Chinese Hamster Ovary (CHO—K1) cell line that recombinantly expressed the long isoform of human D2 receptor (DRD2L PathHunter cells). The D2 receptor DNA sequence was modified to contain a “ProLink” at its C-terminus which allowed complementation with an “enzyme acceptor” (EA)-tagged β-arrestin protein. The recruitment of the O-arrestin by the D2 receptor led to complementation of the ProLink and EA and formation of active β-galactosidase which generated a D2-specific signal that was measured. The cAMP assay was measured in the same D2-expressing cell line. The D2 receptor inhibited cAMP formation so that the basal levels of cAMP were increased by the addition of an adenylate cyclase stimulator, forskolin.
cAMP HTRF Agonist Assay: Two days prior to testing, a vial of high density stock of DRD2L PathHunter cells was thawed, and cells were diluted into 10 mL of growth media (Ham's F12/10% HI FBS/1% PSG) and used to seed a T225 flask containing 50 mL of growth media. Cells were cultured for 2 days.
On the day of the assay, cells were dissociated in 5 mL cell dissociation buffer (enzyme free—Invitrogen) for 10-15 minutes at 37° C. Dissociated cells were diluted with 10 mL of growth media and counted. Cell counts were routinely ˜2×10^7 per T225. Cells were then pelleted at 1500 rpm for 5 min. Supernatant was aspirated, and cells were re-suspended in HBSS/20 mM Hepes, pH 7.4 to a cell density of 1×10^6/mL.
cAMP levels were determined using the Cisbio HTRF method. HRTF reagents (cAMP-HTRF acceptor fluorophore (d2) conjugate and cryptate-labeled anti-cAMP antibody) were prepared according to maunfacturers instructions. 5 μL of each were added to each well of an assay plate and incubated for 1 h at RT. The plate was then read on an Envision reader using the HTRF protocol, and data were exported for analysis.
(§1) The agonist Emax results were expressed as a percent of the dopamine control response ((measured specific response/control specific agonist response)×100) obtained in the presence of test article. The EC50 values (concentration producing a half-maximal specific response) were determined by non-linear regression analysis of the concentration-response curves.
Test [2] has as its target T1, long isoform of human D2 receptor. The test can be described thus: Arrestin Agonist Assay (DRD2L PathHunter CHO-K1 cells, β-arrestin recruitment). The note with it: for Emax: CHO-K1, read-out: β-arrestin (agonist mode) Emax. On the technique in general: Activated receptors often draw arrestin, which recruitment assays turn into a signal.
Experimental: Cell Lines: Activities of the compounds were assessed using a Chinese Hamster Ovary (CHO—K1) cell line that recombinantly expressed the long isoform of human D2 receptor (DRD2L PathHunter cells). The D2 receptor DNA sequence was modified to contain a “ProLink” at its C-terminus which allowed complementation with an “enzyme acceptor” (EA)-tagged β-arrestin protein. The recruitment of the O-arrestin by the D2 receptor led to complementation of the ProLink and EA and formation of active β-galactosidase which generated a D2-specific signal that was measured.
Arrestin Agonist Assay: One day prior to testing, a vial of high density stock of DRD2L PathHunter cells was thawed, and 1×10^7 cells diluted into 40 mL of growth media (Ham's F12/10% HI FBS/1% PSG). 20 μL cells per well were seeded directly into assay plates, and the plates were allowed to rest for 1 h at RT before incubating in a plate incubator overnight.
5 μL diluted compound was added to cells in each well, and the assay plate was incubated for 90 min at 37° C. 12.5 μL PathHunter detection reagent was added to each well of the assay plate, which was then covered and incubated for 1 h at RT. The plate was read on an Envision reader using the Luminescence protocol, and the data were exported for analysis.
as §1
Test [3] has the same target. The test can be described thus: Arrestin Antagonist Assay (DRD2L PathHunter CHO-K1 cells, vs EC80 dopamine). The note with it: for Emax: CHO-K1, read-out: β-arrestin (antagonist mode) Imax.

In the case of `O=c1ccc2ccc(OCCCCN3CCc4c(cccc4C(F)(F)F)C3)nc2[nH]1` [Compound 61, 7-(4-(5-(trifluoromethyl)-3,4-dihydroisoquinolin-2(1H)-yl)butoxy)-1,8-naphthyridin-2(1H)-one], in test [1], the IC50 is less than 10 nM and the Emax is more than 75%. For the same compound, in test [2], the 50% effective concentration (EC50) lay in the range of 10 to 100 nM and the Emax is more than 75%. In test [3], the IC50 is more than 10000 nM and the Emax was less than 10%.

For `Clc1cccc2c1CCN(CCCCOc1cccc(-c3cc[nH]n3)n1)C2` [Compound 45, 2-(4-((6-(1H-pyrazol-3-yl)pyridin-2-yl)oxy)butyl)-5-chloro-1,2,3,4-tetrahydroisoquinoline], in test [1], the IC50 was less than 10 nM and the Emax was more than 75%. Further, in test [2], the half-maximal effective concentration (EC50) was 10 to 100 nM and the Emax was more than 75%. Further, in test [3], the IC50 was more than 10000 nM and the Emax was less than 10%.

On to `O=C1CCc2ccc(OCCCCN3CCc4ccccc4C3)nc2N1` [Compound 68, 7-(4-(3,4-dihydroisoquinolin-2(1H)-yl)butoxy)-3,4-dihydro-1,8-naphthyridin-2(1H)-one], for which, in test [1], the IC50 was less than 10 nM and the Emax is 25 to 50%. Further, in test [2], the half-maximal effective concentration (EC50) is more than 10000 nM and the Emax was less than 10%. In test [3], the IC50 was 10 to 100 nM and the Emax was more than 75%.

Consider `CCOc1ccccc1N1CCN(CCCCOc2ccc3cn[nH]c3c2)CC1` [Compound 93, 6-(4-(4-(2-ethoxyphenyl)piperazin-1-yl)butoxy)-1H-indazole], for which the IC50 in test [1] was less than 10 nM; in test [3] it was 10 to 100 nM. The Emax in test [1] is 25 to 50%; in test [2] it was 10 to 25%; in test [3], more than 75%. The compound further had a concentration giving a half-maximal response (EC50) in test [2] of less than 10 nM.

Take `Cc1ccccc1N1CCN(CCCCOc2ccc3cn[nH]c3c2)CC1` [Compound 96, 6-(4-(4-(o-tolyl)piperazin-1-yl)butoxy)-1H-indazole]: in test [1], the IC50 fell in the range of 10 to 100 nM and the Emax was 25 to 50%. In addition, in test [2], the EC50 lay in the range of 10 to 100 nM and the Emax was 10 to 25%. Also, in test [3], the IC50 lay within 100 to 1000 nM and the Emax is more than 75%.

Regarding `Cc1cccc(N2CCN(CCCCOc3ccc4cn[nH]c4n3)CC2)c1C` [Compound 3, 6-(4-(4-(2,3-dimethylphenyl)piperazin-1-yl)butoxy)-1H-pyrazolo[3,4-b]pyridine], in test [1], the 50% inhibitory concentration (IC50) lay in the range of 10 to 100 nM and the Emax was 10 to 25%. For the same compound, in test [2], the EC50 was more than 10000 nM and the Emax was less than 10%. For the same compound, in test [3], the IC50 fell in the range of 100 to 1000 nM and the Emax was more than 75%.

Turning to `CCn1cc2c(n1)CCN(CCCCOc1ccc3c(c1)NC(=O)CC3)C2` [Compound 34, 7-(4-(2-ethyl-6,7-dihydro-2H-pyrazolo[4,3-c]pyridin-5(4H)-yl)butoxy)-3,4-dihydroquinolin-2(1H)-one], in test [1], the half-maximal inhibitory concentration (IC50) was 100 to 1000 nM and the Emax lay within 50 to 75%. In addition, in test [2], the EC50 lay in the range of 100 to 1000 nM and the Emax fell in the range of 50 to 75%. Besides, in test [3], the IC50 is more than 10000 nM and the Emax was less than 10%.

Consider `c1cc(OCCCCN2CCc3ccccc3C2)nc(-c2c[nH]cn2)c1` [Compound 51, 2-(4-((6-(1H-imidazol-4-yl)pyridin-2-yl)oxy)butyl)-1,2,3,4-tetrahydroisoquinoline], for which the values for the IC50 in test [1] and in test [3] were more than 10000 nM and 100 to 1000 nM, respectively. The Emax in test [1] is less than 10%; in test [2] it was less than 10%; in test [3] it was more than 75%. Also, in test [2], the EC50 is more than 10000 nM.

For `Oc1cccc2ccc(OCCCCN3CCN(c4ccccn4)CC3)nc12` [Compound 8, 2-(4-(4-(pyridin-2-yl)piperazin-1-yl)butoxy)quinolin-8-ol], in test [1], the half-maximal inhibitory concentration (IC50) was less than 10 nM and the Emax was more than 75%. Moreover, in test [2], the EC50 lay within 10 to 100 nM and the Emax was more than 75%. Moreover, in test [3], the 50% inhibitory concentration (IC50) was more than 10000 nM and the Emax was less than 10%.

Regarding `COc1cccnc1N1CCN(CCCCOc2ccc3cn[nH]c3c2)CC1` [Compound 99, 6-(4-(4-(3-methoxypyridin-2-yl)piperazin-1-yl)butoxy)-1H-indazole], in test [1], the IC50 is less than 10 nM and the Emax was in the range of 25 to 50%. Moreover, in test [2], the EC50 was less than 10 nM and the Emax is 10 to 25%. In addition, in test [3], the IC50 lay within 10 to 100 nM and the Emax is more than 75%.

As for `O=C1CCc2ccc(OCCCCN3CCc4nn(-c5cccc(F)c5)cc4C3)cc2N1` [Compound 36, 7-(4-(2-(3-fluorophenyl)-6,7-dihydro-2H-pyrazolo[4,3-c]pyridin-5(4H)-yl)butoxy)-3,4-dihydroquinolin-2(1H)-one], in test [1], the IC50 was less than 10 nM and the Emax was more than 75%. For the same compound, in test [2], the concentration for a half-maximal effect (EC50) was less than 10 nM and the Emax was more than 75%. For the same compound, in test [3], the IC50 was more than 10000 nM and the Emax was less than 10%.

In the case of `c1ccc(N2CCN(CCCCOc3ccc4cn[nH]c4c3)CC2)nc1` [Compound 94, 6-(4-(4-(pyridin-2-yl)piperazin-1-yl)butoxy)-1H-indazole], in test [1], the IC50 is less than 10 nM and the Emax is more than 75%. In addition, in test [2], the concentration for a half-maximal effect (EC50) is less than 10 nM and the Emax was more than 75%. In test [3], the IC50 was more than 10000 nM and the Emax was less than 10%.

With `O=C1CCc2ccc(OCCCCN3CCc4cc(C(F)(F)F)ccc4C3)nc2N1` [Compound 74, 7-(4-(6-(trifluoromethyl)-3,4-dihydroisoquinolin-2(1H)-yl)butoxy)-3,4-dihydro-1,8-naphthyridin-2(1H)-one], the half-maximal inhibitory concentration (IC50) lay in the range of 10 to 100 nM in test [1] and 100 to 1000 nM in test [3]. Further, the Emax is 10 to 25% in test [1], less than 10% in test [2] and more than 75% in test [3]. Also, the EC50 in test [2] is more than 10000 nM.

In the case of `N#Cc1ccc2c(c1)CCN(CCCCOc1ccc3c(n1)NC(=O)CC3)C2` [Compound 73, 2-(4-((7-oxo-5,6,7,8-tetrahydro-1,8-naphthyridin-2-yl)oxy)butyl)-1,2,3,4-tetrahydroisoquinoline-6-carbonitrile], the half-inhibitory concentration (IC50) in test [1] was more than 10000 nM; in test [3] it was 100 to 1000 nM. The Emax in test [1] was less than 10%; in test [2] it was less than 10%; in test [3] it was more than 75%. In test [2], this compound had an EC50 of more than 10000 nM.

As for `Oc1cccc2ccc(OCCCCN3CCc4cc(F)ccc4C3)nc12` [Compound 16, 2-(4-(6-fluoro-3,4-dihydroisoquinolin-2(1H)-yl)butoxy)quinolin-8-ol], in test [1], the IC50 is more than 10000 nM and the Emax was less than 10%. In test [2], the EC50 was more than 10000 nM and the Emax is less than 10%. Besides, in test [3], the IC50 lay within 100 to 1000 nM and the Emax was more than 75%.

With `O=c1ccc2ccc(OCCCCN3CCc4c(Cl)cccc4C3)nc2[nH]1` [Compound 60, 7-(4-(5-chloro-3,4-dihydroisoquinolin-2(1H)-yl)butoxy)-1,8-naphthyridin-2(1H)-one], in test [1], the 50% inhibitory concentration (IC50) is less than 10 nM and the Emax was more than 75%. Further, in test [2], the EC50 is less than 10 nM and the Emax is more than 75%. Besides, in test [3], the concentration for half-maximal inhibition (IC50) is more than 10000 nM and the Emax was less than 10%.

Regarding `O=C1CCc2ccc(OCCCCN3CCc4nn(-c5ccccc5)cc4C3)nc2N1` [Compound 82, 7-(4-(2-phenyl-6,7-dihydro-2H-pyrazolo[4,3-c]pyridin-5(4H)-yl)butoxy)-3,4-dihydro-1,8-naphthyridin-2(1H)-one], in test [1], the half-inhibitory concentration (IC50) is more than 10000 nM and the Emax is less than 10%. In addition, in test [2], the concentration for a half-maximal effect (EC50) was more than 10000 nM and the Emax is less than 10%. In test [3], the IC50 was in the range of 100 to 1000 nM and the Emax is more than 75%.

With `O=C1CCc2ccc(OCCCCN3CCc4nn(-c5ccccn5)cc4C3)cc2N1` [Compound 38, 7-(4-(2-(pyridin-2-yl)-6,7-dihydro-2H-pyrazolo[4,3-c]pyridin-5(4H)-yl)butoxy)-3,4-dihydroquinolin-2(1H)-one], in test [1], the 50% inhibitory concentration (IC50) is less than 10 nM and the Emax lay in the range of 50 to 75%. In addition, in test [2], the EC50 is less than 10 nM and the Emax lay within 25 to 50%. Further, in test [3], the IC50 was 10 to 100 nM and the Emax was in the range of 25 to 50%.

Consider `COc1ccc2c(c1)CCN(CCCCOc1ccc3c(n1)NC(=O)CC3)C2` [Compound 71, 7-(4-(6-methoxy-3,4-dihydroisoquinolin-2(1H)-yl)butoxy)-3,4-dihydro-1,8-naphthyridin-2(1H)-one], for which, in test [1], the IC50 was more than 10000 nM and the Emax is less than 10%. In test [2], the EC50 is more than 10000 nM and the Emax was less than 10%. Besides, in test [3], the half-inhibitory concentration (IC50) fell in the range of 10 to 100 nM and the Emax was more than 75%.
